Test results: US8362012B2, “Benzoxazine benzimidazole derivative, a pharmaceutical composition comprising the same, and a use thereof” (Daewoong Pharmaceutical Co., Ltd., priority 2008, dated 2013)

Tests used:
[1] = target: T1, human vanilloid-1 (hVR-1) in hVR-1-HEK293 cell line (Homo sapiens, UniProt Q8NER1); assay: Inhibitory effect on calcium influx via a vanilloid receptor (capsaicin-stimulated, Fluo-3/AM); format: cell-based; conditions: hVR-1-HEK293 cells, 1 μM of capsaicin, compounds 0.015˜2000 nM; read-out: I.A. (inhibitory activity), IC50 on intracellular calcium influx
T1 construct: expressed in transfected cells; host or cells: HEK293 Tet-on strain, doxycycline-induced
Description: The cell line can modulate the expression of VR-1, depending on whether doxycycline, a derivative of tetracycline, is present or not. […] Specifically, hVR-1-HEK293 cells were cultured in a T75 flask to about 80% confluency, separated from the flask by treating with trypsin solution, and then collected by centrifugation. The cells were suspended in a medium containing 1 μg/mL of doxycycline, and the resulting suspension was diluted to a concentration of 2˜4×10^5 cells/mL […], of the cell suspension was placed in each well of a 96-well black plate. The cells were cultured in 5% CO2 incubator at 37° C. for 2 days, and used for the following procedure. […] The cells prepared in 1) above were cultured at 37° C. for 90 min in a solution containing Fluo-3/AM, a fluorescent dye, as a calcium indicator so that the fluorescent dye was permeated into the cells. […] In order to stimulate calcium influx through a vanilloid receptor, the cells were treated with 1 μM of capsaicin. […] The obtained data were input to the Hill equation represented by the following formula I and the values were analyzed: Intracellular calcium influx= [(fluorescent intensity of experimental group−fluorescent intensity of background)/(fluorescent intensity of positive control−fluorescent intensity of background)]*100 [Formula I] The inhibitory activities were evaluated from the obtained intracellular calcium influx values according to the following criteria.

ICR male mice = assay: Phenyl-p-quinone (PBQ)-induced writhing experiment using mice; format: in vivo; conditions: orally administered, PBQ (0.02%) intraperitoneally after 1 hour, writhing counted for 10 min
Description: In order to evaluate the effect on pain of the compounds prepared in the Examples, behaviors such as twisting or writhing of body resulted from pain were verified by the phenyl-p-quinone (PBQ)-induced writhing experiment using mice. 5 week-old ICR male mice were used as experimental animals and PBQ (0.02%), as a chemical stimulator. The suspensions of 20 mg of the compounds of the present invention and an excipient such as Na—CMC (sodium carboxymethyl cellulose) in 10 mL of saline were used as test compounds. The test compounds were orally administered to the mice and after 1 hour, PBQ was intraperitoneally administrated in an amount of 10 mL per kg of body weight. Also, as a control group, equivalent amounts of BCTC were administered. The writhing number of each mouse was measured for 10 min starting from 5 min after the administration, and the analgesic effect was verified by counting the reduced number compared to the control group administered with only excipient and calculating the % inhibitory rate according to the following Formula 2. % inhibition rate=(writhing # of control group−writhing # of test group)/writhing # of control group×100 [Formula 2]

T1 sequence (Q8NER1 whole entry): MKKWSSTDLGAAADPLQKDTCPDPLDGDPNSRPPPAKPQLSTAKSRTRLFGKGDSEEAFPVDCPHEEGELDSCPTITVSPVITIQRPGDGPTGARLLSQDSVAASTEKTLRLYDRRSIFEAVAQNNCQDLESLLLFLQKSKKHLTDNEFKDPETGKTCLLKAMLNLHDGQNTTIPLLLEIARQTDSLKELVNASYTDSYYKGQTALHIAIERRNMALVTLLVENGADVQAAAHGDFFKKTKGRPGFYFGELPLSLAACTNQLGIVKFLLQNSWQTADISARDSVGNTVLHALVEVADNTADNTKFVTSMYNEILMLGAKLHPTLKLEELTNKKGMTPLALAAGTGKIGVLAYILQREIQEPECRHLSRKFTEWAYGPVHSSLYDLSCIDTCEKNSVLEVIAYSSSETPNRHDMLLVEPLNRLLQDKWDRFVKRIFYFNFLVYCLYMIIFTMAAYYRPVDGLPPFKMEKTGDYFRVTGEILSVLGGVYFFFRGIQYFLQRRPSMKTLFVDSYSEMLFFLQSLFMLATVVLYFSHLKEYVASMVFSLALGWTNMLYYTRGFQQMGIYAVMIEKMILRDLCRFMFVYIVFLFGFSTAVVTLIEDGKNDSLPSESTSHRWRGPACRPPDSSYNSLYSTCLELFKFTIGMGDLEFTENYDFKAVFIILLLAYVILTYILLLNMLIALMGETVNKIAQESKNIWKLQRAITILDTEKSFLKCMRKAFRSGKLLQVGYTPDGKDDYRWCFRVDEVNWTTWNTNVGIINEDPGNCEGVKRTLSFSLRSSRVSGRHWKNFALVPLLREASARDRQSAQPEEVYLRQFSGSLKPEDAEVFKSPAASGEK

SMILES | IC50 [1] [nM] | I.A. (inhibitory activity), % inhibition rate of writhing (ICR male mice)
Cc1ccc(N2c3cccc(-c4nc5ccc(Br)cc5[nH]4)c3OC[C@@H]2CO)nc1 [Example 36, [(S)-8-(6-bromo-1H-benzimidazol-2-yl)-4-(5-methyl-pyridin-2-yl)-3,4-dihydro-2H-benzo[1,4]oxazin-3-yl]-methanol] | < 20 | +++ (51-80%)
Cc1ccc(N2c3cccc(-c4nc5ccc(Cl)cc5[nH]4)c3OC[C@@H]2CO)nc1 [Example 37, [(S)-8-(6-chloro-1H-benzimidazol-2-yl)-4-(5-methyl-pyridin-2-yl)-3,4-dihydro-2H-benzo[1,4]oxazin-3-yl]-methanol] | 20 to 100 | +++ (51-80%)
Cc1ccc(N2c3cccc(-c4nc5cc(Cl)c(Cl)cc5[nH]4)c3OC[C@@H]2CO)nc1 [Example 38, [(S)-8-(5,6-dichloro-1H-benzimidazol-2-yl)-4-(5-methyl-pyridin-2-yl)-3,4-dihydro-2H-benzo[1,4]oxazin-3-yl]-methanol] | < 20 | +++ (51-80%)
Cc1ccc(N2c3cccc(-c4nc5c(Cl)cc(C(F)(F)F)cc5[nH]4)c3OC[C@@H]2CO)nc1 [Example 39, [(S)-8-(4-chloro-6-trifluoromethyl-1H-benzimidazol-2-yl)-4-(5-methyl-pyridin-2-yl)-3,4-dihydro-2H-benzo[1,4]oxazin-3-yl]-methanol] | < 20 | +++ (51-80%)
Cc1ccc(N2c3cccc(-c4nc5c(C(F)(F)F)cc(C(F)(F)F)cc5[nH]4)c3OC[C@@H]2CO)nc1 [Example 40, [(S)-8-(4,6-bis-trifluoromethyl-1H-benzimidazol-2-yl)-4-(5-methyl-pyridin-2-yl)-3,4-dihydro-2H-benzo[1,4]oxazin-3-yl]-methanol] | 20 to 100 | ++++ (>80%)
Cc1ccc(N2c3cccc(-c4nc5c(Br)cc(C(F)(F)F)cc5[nH]4)c3OC[C@@H]2CO)nc1 [Example 41, [(S)-8-(4-bromo-6-trifluoromethyl-1H-benzimidazol-2-yl)-4-(5-methyl-pyridin-2-yl)-3,4-dihydro-2H-benzo[1,4]oxazin-3-yl]-methanol] | < 20 | ++ (20˜50%)
Cc1ccc(N2c3cccc(-c4nc5c(Br)cc(Br)cc5[nH]4)c3OC[C@@H]2CO)nc1 [Example 42, [(S)-8-(4,6-dibromo-1H-benzimidazol-2-yl)-4-(5-methyl-pyridin-2-yl)-3,4-dihydro-2H-benzo[1,4]oxazin-3-yl]-methanol] | 20 to 100 | +++ (51-80%)
Cc1ccc(N2c3cccc(-c4nc5c(F)cc(Br)cc5[nH]4)c3OC[C@@H]2CO)nc1 [Example 43, [(S)-8-(6-bromo-4-fluoro-1H-benzimidazol-2-yl)-4-(5-methyl-pyridin-2-yl)-3,4-dihydro-2H-benzo[1,4]oxazin-3-yl]-methanol] | < 20 | ++ (20˜50%)
Cc1ccc(N2c3cccc(-c4nc5cc(F)c(F)cc5[nH]4)c3OC[C@@H]2CO)nc1 [Example 44, [(S)-8-(5,6-difluoro-1H-benzimidazol-2-yl)-4-(5-methyl-pyridin-2-yl)-3,4-dihydro-2H-benzo[1,4]oxazin-3-yl]-methanol] | < 20 | ++++ (>80%)
Cc1ccc(N2c3cccc(-c4nc5cc(F)c(Cl)cc5[nH]4)c3OC[C@@H]2CO)nc1 [Example 45, [(S)-8-(6-chloro-5-fluoro-1H-benzimidazol-2-yl)-4-(5-methyl-pyridin-2-yl)-3,4-dihydro-2H-benzo[1,4]oxazin-3-yl]-methanol] | < 20 | +++ (51-80%)
Cc1ccc(N2c3cccc(-c4nc5c(C)cc(Br)cc5[nH]4)c3OC[C@@H]2CO)nc1 [Example 46, [(S)-8-(6-bromo-4-methyl-1H-benzimidazol-2-yl)-4-(5-methyl-pyridin-2-yl)-3,4-dihydro-2H-benzo[1,4]oxazin-3-yl]-methanol] | < 20 | ++ (20˜50%)
Cc1ccc(N2c3cccc(-c4nc5ccc(OC(F)(F)F)cc5[nH]4)c3OC[C@@H]2CO)nc1 [Example 47, [(S)-4-(5-methyl-pyridin-2-yl)-8-(6-trifluoromethoxy-1H-benzimidazol-2-yl)-3,4-dihydro-2H-benzo[1,4]oxazin-3-yl]-methanol] | < 20 | ++ (20˜50%)
COc1ccc2nc(-c3cccc4c3OC[C@H](CO)N4c3ccc(C)cn3)[nH]c2c1 [Example 48, [(S)-8-(6-methoxy-1H-benzimidazol-2-yl)-4-(5-methyl-pyridin-2-yl)-3,4-dihydro-2H-benzo[1,4]oxazin-3-yl]-methanol] | 20 to 100 | ++ (20˜50%)
Cc1ccc(N2c3cccc(-c4nc5ccc(F)cc5[nH]4)c3OC[C@@H]2CO)nc1 [Example 49, [(S)-8-(6-fluoro-1H-benzimidazol-2-yl)-4-(5-methyl-pyridin-2-yl)-3,4-dihydro-2H-benzo[1,4]oxazin-3-yl]-methanol] | < 20 | +++ (51-80%)
Cc1ccc(N2c3cccc(-c4nc5c(C)cccc5[nH]4)c3OC[C@@H]2CO)nc1 [Example 50, [(S)-8-(4-methyl-1H-benzimidazol-2-yl)-4-(5-methyl-pyridine-2-yl)-3,4-dihydro-2H-benzo[1,4]oxazin-3-yl]-methanol] | < 20 | + (<20%)
Cc1ccc(N2c3cccc(-c4nc5cc(C)ccc5[nH]4)c3OC[C@@H]2CO)nc1 [Example 51, [(S)-8-(5-methyl-1H-benzimidazol-2-yl)-4-(5-methyl-pyridin-2-yl)-3,4-dihydro-2H-benzo[1,4]oxazin-3-yl]-methanol] | < 20 | + (<20%)
Cc1ccc(N2c3cccc(-c4nc5c(C)c(C)ccc5[nH]4)c3OC[C@@H]2CO)nc1 [Example 52, [(S)-8-(4,5-dimethyl-1H-benzimidazol-2-yl)-4-(5-methyl-pyridin-2-yl)-3,4-dihydro-2H-benzo[1,4]oxazin-3-yl]-methanol] | < 20 | ++ (20˜50%)
Cc1ccc(N2c3cccc(-c4nc5ccccc5[nH]4)c3OC[C@@H]2CO)nc1 [Example 53, [(S)-8-(1H-benzimidazol-2-yl)-4-(5-methyl-pyridin-2-yl)-3,4-dihydro-2H-benzo[1,4]oxazin-3-yl]-methanol] | < 20 | + (<20%)
C=Cc1ccc(N2c3cccc(-c4nc5ccc(Cl)cc5[nH]4)c3OC[C@@H]2CO)nc1 [Example 59, [(S)-8-(6-chloro-1H-benzimidazol-2-yl)-4-(5-vinyl-pyridin-2-yl)-3,4-dihydro-2H-benzo[1,4]oxazin-3-yl]-methanol] | < 20 | +++ (51-80%)
C=Cc1ccc(N2c3cccc(-c4nc5ccc(Br)cc5[nH]4)c3OC[C@@H]2CO)nc1 [Example 60, [(S)-8-(6-bromo-1H-benzimidazol-2-yl)-4-(5-vinyl-pyridin-2-yl)-3,4-dihydro-2H-benzo[1,4]oxazin-3-yl]-methanol] | < 20 | +++ (51-80%)
C=Cc1ccc(N2c3cccc(-c4nc5c(C)cc(Br)cc5[nH]4)c3OC[C@@H]2CO)nc1 [Example 66, [(S)-8-(6-bromo-4-methyl-1H-benzimidazol-2-yl)-4-(5-vinyl-pyridin-2-yl)-3,4-dihydro-2H-benzo[1,4]oxazin-3-yl]-methanol] | < 20 | +++ (51-80%)
C=Cc1ccc(N2c3cccc(-c4nc5ccc(OC(F)(F)F)cc5[nH]4)c3OC[C@@H]2CO)nc1 [Example 67, [(S)-8-(6-trifluoromethoxy-1H-benzimidazol-2-yl)-4-(5-vinyl-pyridin-2-yl)-3,4-dihydro-2H-benzo[1,4]oxazin-3-yl]-methanol] | < 20 | +++ (51-80%)
C=Cc1ccc(N2c3cccc(-c4nc5cc(Cl)c(Cl)cc5[nH]4)c3OC[C@@H]2CO)nc1 [Example 68, [(S)-8-(5,6-dichloro-1H-benzimidazol-2-yl)-4-(5-vinyl-pyridin-2-yl)-3,4-dihydro-2H-benzo[1,4]oxazin-3-yl]-methanol] | < 20 | +++ (51-80%)
